Assay results: ChEMBL document CHEMBL4304831, “Chalcone-Thiazole Hybrids: Rational Design, Synthesis, and Lead Identification against 5-Lipoxygenase” (ACS Med Chem Lett, 2019)

T1: Polyunsaturated fatty acid 5-lipoxygenase (Homo sapiens) (UniProt P09917)
T1 sequence (whole entry): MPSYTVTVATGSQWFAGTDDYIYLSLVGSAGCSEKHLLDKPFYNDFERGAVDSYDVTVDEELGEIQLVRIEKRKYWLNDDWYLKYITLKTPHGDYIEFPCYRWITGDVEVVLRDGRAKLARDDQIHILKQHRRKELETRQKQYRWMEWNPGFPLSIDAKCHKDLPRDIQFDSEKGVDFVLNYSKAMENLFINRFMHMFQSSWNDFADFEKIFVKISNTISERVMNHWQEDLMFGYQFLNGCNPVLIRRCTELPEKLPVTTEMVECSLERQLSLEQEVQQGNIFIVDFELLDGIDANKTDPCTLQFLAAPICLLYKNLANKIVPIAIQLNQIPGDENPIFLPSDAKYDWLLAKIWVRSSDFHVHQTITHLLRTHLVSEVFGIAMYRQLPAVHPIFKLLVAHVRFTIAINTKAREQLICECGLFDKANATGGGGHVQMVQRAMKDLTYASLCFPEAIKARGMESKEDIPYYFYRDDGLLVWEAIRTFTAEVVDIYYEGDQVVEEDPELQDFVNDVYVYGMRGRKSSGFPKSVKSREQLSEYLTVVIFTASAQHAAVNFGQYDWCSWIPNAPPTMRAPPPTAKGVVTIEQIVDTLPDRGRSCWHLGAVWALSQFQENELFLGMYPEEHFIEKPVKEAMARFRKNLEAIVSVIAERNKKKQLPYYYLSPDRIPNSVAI

T2: Polyunsaturated fatty acid 5-lipoxygenase (Homo sapiens, UniProt P09917)
T2 sequence (P09917 whole entry): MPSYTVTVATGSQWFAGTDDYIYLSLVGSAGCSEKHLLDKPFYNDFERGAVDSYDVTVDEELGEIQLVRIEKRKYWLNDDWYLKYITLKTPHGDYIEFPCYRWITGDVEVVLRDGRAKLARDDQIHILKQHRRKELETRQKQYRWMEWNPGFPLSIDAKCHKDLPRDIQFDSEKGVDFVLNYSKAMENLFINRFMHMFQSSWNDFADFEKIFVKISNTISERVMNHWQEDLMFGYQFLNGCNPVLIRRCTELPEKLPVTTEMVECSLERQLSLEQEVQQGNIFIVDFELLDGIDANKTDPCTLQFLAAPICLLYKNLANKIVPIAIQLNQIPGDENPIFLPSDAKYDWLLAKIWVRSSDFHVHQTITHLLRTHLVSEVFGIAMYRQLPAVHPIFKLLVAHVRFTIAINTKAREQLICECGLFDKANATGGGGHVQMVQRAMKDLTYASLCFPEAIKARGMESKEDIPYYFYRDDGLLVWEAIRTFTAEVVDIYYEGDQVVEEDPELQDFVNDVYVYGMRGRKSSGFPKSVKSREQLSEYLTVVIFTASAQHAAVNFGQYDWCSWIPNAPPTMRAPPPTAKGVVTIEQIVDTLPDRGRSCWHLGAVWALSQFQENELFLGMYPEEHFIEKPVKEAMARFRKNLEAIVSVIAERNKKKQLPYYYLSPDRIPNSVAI


Tests used:
[1] = Antioxidant activity assessed as DPPH radical scavenging activity at 10 uM after 30 mins under dark condition relative to control; type: functional
[2] = target: T1, Polyunsaturated fatty acid 5-lipoxygenase (Homo sapiens); test: Inhibition of human recombinant 5-LOX expressed in Escherichia coli BL21 assessed as conversion of arachidonic acid to 5-HPETE at 10 uM using arachidonic acid as substrate in presence of ATP by UV-vis spectrophotometry analysis relative to control
[3] = target: T2, Polyunsaturated fatty acid 5-lipoxygenase; test: Inhibition of human recombinant 5-LOX expressed in Escherichia coli BL21 assessed as conversion of arachidonic acid to 5-HPETE using arachidonic acid as substrate in presence of ATP by UV-vis spectrophotometry analysis
[4] = target: T1, Polyunsaturated fatty acid 5-lipoxygenase (Homo sapiens); test: Inhibition of human recombinant 5-LOX pseudoperoxidase activity expressed in Escherichia coli BL21 assessed as compound redox activity by measuring change in absorption at 10 uM using 13(S)-HpODE as substrate in presence of ATP by UV-vis spectrophotometric method relative to control; design: scale not given: the % may be the effect or the level left
[5] = compound: Cc1nc(NC(=O)c2ccccc2)sc1C(=O)/C=C/c1cc2c(cc1Br)OCO2; test: (§1) Competitive inhibition of human recombinant 5-LOX expressed in Escherichia coli BL21 assessed as Vmax for substrate at 5 uM using varying levels arachidonic acid as substrate by Lineweaver-Burk plot analysis (reference value: 0.33 to 0.45 +/- 0.01 nmol/min)
[6] = compound: COc1ccc(C(=O)Nc2nc(C)c(C(=O)/C=C/c3ccc(C)cc3)s2)cc1; test: as §1
[7] = compound: COc1cc(/C=C/C(=O)c2sc(NC(=O)c3ccccc3)nc2C)cc(OC)c1OC; test: Noncompetitive inhibition of human recombinant 5-LOX expressed in Escherichia coli BL21 assessed as Km for substrate at 2 uM using varying levels arachidonic acid as substrate by Lineweaver-Burk plot analysis (reference value: 1.9 +/- 0.4 uM)
[8] = compound: Cc1nc(NC(=O)c2ccccc2)sc1C(=O)/C=C/c1cc2c(cc1Br)OCO2; test: (§2) Competitive inhibition of human recombinant 5-LOX expressed in Escherichia coli BL21 assessed as increase in Km for substrate at 2 uM using varying levels arachidonic acid as substrate by Lineweaver-Burk plot analysis (reference value: 0.31 to 0.35 +/- 0.08 to 0.10 uM)
[9] = compound: COc1ccc(C(=O)Nc2nc(C)c(C(=O)/C=C/c3ccc(C)cc3)s2)cc1; test: as §2
[10] = compound: COc1cc(/C=C/C(=O)c2sc(NC(=O)c3ccccc3)nc2C)cc(OC)c1OC; test: Noncompetitive inhibition of human recombinant 5-LOX expressed in Escherichia coli BL21 assessed as decrease in Vmax for substrate at 5 uM using varying levels arachidonic acid as substrate by Lineweaver-Burk plot analysis (reference value: 0.38 +/- 0.02 nmol/min)
[11] = compound: Cc1nc(NC(=O)c2ccccc2)sc1C(=O)/C=C/c1cc2c(cc1Br)OCO2; test: (§3) Competitive inhibition of human recombinant 5-LOX expressed in Escherichia coli BL21 assessed as Vmax for substrate at 2 uM using varying levels arachidonic acid as substrate by Lineweaver-Burk plot analysis (reference value: 0.33 to 0.45 +/- 0.01 nmol/min)
[12] = compound: COc1ccc(C(=O)Nc2nc(C)c(C(=O)/C=C/c3ccc(C)cc3)s2)cc1; test: as §3
[13] = compound: Cc1nc(NC(=O)c2ccccc2)sc1C(=O)/C=C/c1cc2c(cc1Br)OCO2; test: (§4) Competitive inhibition of human recombinant 5-LOX expressed in Escherichia coli BL21 assessed as increase in Km for substrate at 5 uM using varying levels arachidonic acid as substrate by Lineweaver-Burk plot analysis (reference value: 0.31 to 0.35 +/- 0.08 to 0.10 uM)
[14] = compound: COc1ccc(C(=O)Nc2nc(C)c(C(=O)/C=C/c3ccc(C)cc3)s2)cc1; test: as §4
[15] = compound: COc1cc(/C=C/C(=O)c2sc(NC(=O)c3ccccc3)nc2C)cc(OC)c1OC; test: Noncompetitive inhibition of human recombinant 5-LOX expressed in Escherichia coli BL21 assessed as decrease in Vmax for substrate at 2 uM using varying levels arachidonic acid as substrate by Lineweaver-Burk plot analysis (reference value: 0.38 +/- 0.02 nmol/min)
[16] = compound: COc1cc(/C=C/C(=O)c2sc(NC(=O)c3ccccc3)nc2C)cc(OC)c1OC; test: Noncompetitive inhibition of human recombinant 5-LOX expressed in Escherichia coli BL21 assessed as Km for substrate at 5 uM using varying levels arachidonic acid as substrate by Lineweaver-Burk plot analysis (reference value: 1.9 +/- 0.4 uM)

| Molecule | inhibition [2] [%] | IC50 [3] [nM] | Activity [4] [%] | Activity [1] [%] | also measured |
| --- | --- | --- | --- | --- | --- |
| Cc1nc(NC(=O)c2ccc([N+](=O)[O-])cc2)sc1C(=O)/C=C/c1ccc(Cl)cc1 | 48.8 |  |  | 2.4 |  |
| Cc1nc(NC(=O)c2ccccc2)sc1C(=O)/C=C/c1ccco1 | 57.2 |  |  | 3.4 |  |
| Cc1nc(NC(=O)c2ccc(F)cc2)sc1C(=O)/C=C/c1cc2c(cc1Br)OCO2 | 50.6 |  |  | 5.1 |  |
| O=C1O[C@H]([C@@H](O)CO)C(O)=C1O |  |  |  | 60.5 |  |
| COc1ccc(C(=O)Nc2nc(C)c(C(=O)/C=C/c3ccc(C)cc3)s2)cc1 | 100 | 80 | 5.6 | 5.5 |  |
| CC(c1cc2ccccc2s1)N(O)C(N)=O (centres undefined) |  |  |  | 10.3 |  |
| Cc1nc(NC(=O)c2ccccc2)sc1C(=O)/C=C/c1cccs1 | 71.9 |  |  | 2.2 |  |
| Cc1nc(NC(=O)c2ccccc2)sc1C(=O)/C=C/c1ccc(Br)cc1 | 52.3 |  |  | 2.4 |  |
| Cc1nc(NC(=O)c2ccc(F)cc2)sc1C(=O)/C=C/c1cccs1 | 81.7 |  |  | 0 |  |
| Cc1nc(NC(=O)c2ccc(F)cc2)sc1C(=O)/C=C/c1ccco1 | 65.3 |  |  | 8.2 |  |
| COc1ccc(/C=C/C(=O)c2sc(NC(=O)c3ccccc3)nc2C)cc1 | 58.8 |  |  | 7.9 |  |
| Cc1nc(NC(=O)c2ccccc2)sc1C(=O)/C=C/c1ccc(Cl)cc1 | 63.7 |  |  | 8.8 |  |
| Polyunsaturated fatty acid 5-lipoxygenase (Homo sapiens), P09917 (protein) MPSYTVTVATGSQWFAGTDDYIYLSLVGSAGCSEKHLLDKPFYNDFERGAVDSYDVTVDEELGEIQLVRIEKRKYWLNDDWYLKYITLKTPHGDYIEFPCYRWITGDVEVVLRDGRAKLARDDQIHILKQHRRKELETRQKQYRWMEWNPGFPLSIDAKCHKDLPRDIQFDSEKGVDFVLNYSKAMENLFINRFMHMFQSSWNDFADFEKIFVKISNTISERVMNHWQEDLMFGYQFLNGCNPVLIRRCTELPEKLPVTTEMVECSLERQLSLEQEVQQGNIFIVDFELLDGIDANKTDPCTLQFLAAPICLLYKNLANKIVPIAIQLNQIPGDENPIFLPSDAKYDWLLAKIWVRSSDFHVHQTITHLLRTHLVSEVFGIAMYRQLPAVHPIFKLLVAHVRFTIAINTKAREQLICECGLFDKANATGGGGHVQMVQRAMKDLTYASLCFPEAIKARGMESKEDIPYYFYRDDGLLVWEAIRTFTAEVVDIYYEGDQVVEEDPELQDFVNDVYVYGMRGRKSSGFPKSVKSREQLSEYLTVVIFTASAQHAAVNFGQYDWCSWIPNAPPTMRAPPPTAKGVVTIEQIVDTLPDRGRSCWHLGAVWALSQFQENELFLGMYPEEHFIEKPVKEAMARFRKNLEAIVSVIAERNKKKQLPYYYLSPDRIPNSVAI |  |  |  |  | Vmax [5]: 0.42 nmol/min; Vmax [6]: 0.31 nmol/min; Km [7]: 1.8 µM; Km [8]: 1.41 µM; Km [9]: 0.43 µM; Vmax [10]: 0.25 nmol/min; Vmax [11]: 0.43 nmol/min; Vmax [12]: 0.32 nmol/min; Km [13]: 2.91 µM; Km [14]: 0.53 µM; Vmax [15]: 0.29 nmol/min; Km [16]: 2.1 µM |

Continued, in another order:

| inhibition [2] [%] | IC50 [3] [nM] | Activity [4] [%] | Molecule | Activity [1] [%] | also measured |
| --- | --- | --- | --- | --- | --- |
| 42.5 |  |  | Cc1nc(NC(=O)c2ccccc2)sc1C(=O)/C=C/c1cccc(Br)c1 | 5.7 |  |
| 98 | 240 | -40.2 | Cc1nc(NC(=O)c2ccccc2)sc1C(=O)/C=C/c1cccc([N+](=O)[O-])c1 | 8.7 |  |
| 70.2 |  |  | COc1ccc(/C=C/C(=O)c2sc(NC(=O)c3ccccc3)nc2C)cc1OC | 6.4 |  |
| 98 | 140 | -12.5 | Cc1nc(NC(=O)c2ccccc2)sc1C(=O)/C=C/c1ccc(F)cc1 | 3 |  |
| 88.2 | 560 | 0.3 | COc1ccc(C(=O)Nc2nc(C)c(C(=O)/C=C/c3ccc(F)cc3)s2)cc1 | 2.1 |  |
| 73.5 |  |  | Cc1nc(NC(=O)c2ccccc2)sc1C(=O)/C=C/c1ccccc1 | 2.5 |  |
| 75.1 |  |  | Cc1ccc(/C=C/C(=O)c2sc(NC(=O)c3ccccc3)nc2C)cc1 | 3 |  |
| 100 | 70 | -56.6 | COc1cc(/C=C/C(=O)c2sc(NC(=O)c3ccccc3)nc2C)cc(OC)c1OC | 5.7 |  |
| 88.2 | 640 | -12.2 | Cc1nc(NC(=O)c2ccccc2)sc1C(=O)/C=C/c1ccc(N(C)C)cc1 | 0 |  |
| 70.2 |  |  | Cc1nc(NC(=O)c2ccc(F)cc2)sc1C(=O)/C=C/c1ccc(N(C)C)cc1 | 3.9 |  |
| 91.5 | 540 | -56.3 | Cc1ccc(/C=C/C(=O)c2sc(NC(=O)c3ccc(F)cc3)nc2C)cc1 | 15 |  |
| 100 | 120 | 1.2 | Cc1nc(NC(=O)c2ccccc2)sc1C(=O)/C=C/c1cc2c(cc1Br)OCO2 | 5.4 |  |
